Assay results published in PMC9569995, “Study of Biological Activities and ADMET-Related Properties of Salicylanilide-Based Peptidomimetics” (International Journal of Molecular Sciences, 2022).
In brackets after ≈: the same amount, converted by molar mass.

Legend:
Mycobacterium kansasii = settings: cited from earlier work
[1] = test system: human monocytic leukemia cell line THP-1; experiment: In vitro cell viability analysis (CCK-8); assay type: cell-based; settings: ± SD, n = 6, medium with 10% FBS, 24 h
In short: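 THP-1 cells in RPMI 1640 with 10% FBS exposed to DMSO-dissolved compounds for 24 h at 37 °C, 5% CO2, in complete medium. Viability read by CCK-8.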

[2] = test system: Staphylococcus aureus ATCC 29213; experiment: Determination of minimum bactericidal concentrations (agar aliquot subculture); settings: ATCC29213
[3] = test system: Mycobacterium tuberculosis H37Ra/ATCC 25177; experiment: In vitro antimycobacterial evaluation, MIC (alamarBlue); settings: MT; 14 days, 37 °C
M. smegmatis ATCC 700084 = experiment: In vitro antimycobacterial evaluation, MIC (broth dilution micro-method); assay type: cell-based, Mycobacterium smegmatis; settings: Mycolicibacterium smegmatis, ATCC700084, 72 h
[4] = test system: Enterococcus faecalis ATCC 29212; experiment: Determination of minimum bactericidal concentrations (agar aliquot subculture); settings: ATCC29212
[5] = test system: Enterococcus faecalis ATCC 29212; experiment: In vitro antibacterial evaluation, MIC by microtitration broth method; settings: ATCC29212, 24 h
[6] = test system: vancomycin-resistant E. faecalis VRE 368; experiment: Determination of minimum bactericidal concentrations (agar aliquot subculture); settings: Enterococcus faecalis
[7] = test system: vancomycin-resistant E. faecalis VRE 725B; experiment: In vitro antibacterial evaluation, MIC by microtitration broth method; settings: Enterococcus faecalis, 24 h
[8] = test system: vancomycin-resistant E. faecalis VRE 342B; experiment: as above; settings: Enterococcus faecalis, 24 h
[9] = test system: methicillin-resistant S. aureus 63718; experiment: as above; settings: Staphylococcus aureus, 24 h
[10] = test system: methicillin-resistant S. aureus SA 3202; experiment: as above; settings: Staphylococcus aureus, 24 h
[11] = test system: methicillin-resistant S. aureus SA 630; experiment: as above; settings: Staphylococcus aureus, 24 h
M. smegmatis = settings: cited from earlier work
[12] = test system: vancomycin-resistant E. faecalis VRE 368; experiment: In vitro antibacterial evaluation, MIC by microtitration broth method; settings: Enterococcus faecalis, 24 h
[13] = test system: methicillin-resistant S. aureus SA 3202; experiment: Determination of minimum bactericidal concentrations (agar aliquot subculture); settings: Staphylococcus aureus
Bacillus cereus = settings: cited from earlier work
[14] = test system: Staphylococcus aureus ATCC 29213; experiment: In vitro antibacterial evaluation, MIC by microtitration broth method; settings: ATCC29213, 24 h
[15] = test system: methicillin-resistant S. aureus SA 630; experiment: Determination of minimum bactericidal concentrations (agar aliquot subculture); settings: Staphylococcus aureus
[16] = test system: vancomycin-resistant E. faecalis VRE 725B; experiment: as above; settings: Enterococcus faecalis
[17] = test system: vancomycin-resistant E. faecalis VRE 342B; experiment: as above; settings: Enterococcus faecalis
[18] = Lipophilicity determination by HPLC; assay type: physicochemical
In short: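 Symmetry C18 column at 40 °C, isocratic MeOH 72% with 28% water for capacity factor k, or with 28% acetate-buffered saline pH 7.4 or 6.5 for D7.4/D6.5. UV 210 nm; dead time from KI. k and D calculated as (tR − tD)/tD; triplicate runs.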

Clostridium perfringens = settings: cited from earlier work
[19] = test system: methicillin-resistant S. aureus 63718; experiment: Determination of minimum bactericidal concentrations (agar aliquot subculture); settings: Staphylococcus aureus

Structure (SMILES): CC(C)[C@H](NC(=O)c1cc(Cl)ccc1O)C(=O)Nc1ccc(C(F)(F)F)cc1 [3c, 5-Chloro-2-hydroxy-N-[(2S)-3-methyl-1-oxo-1-{[4-(trifluoromethyl)phenyl]amino}butan-2-yl]benzamide]
- MIC (Mycobacterium kansasii): 38.6 µM (≈ 16 µg/mL)
- IC50 [1]: > 10 µM
- MBC [2]: 4.82 µM (≈ 2 µg/mL)
- MIC [3]: 77.1 n.d. µM
- MIC (M. smegmatis ATCC 700084): 77.1 µM (≈ 32 µg/mL)
- MBC [4]: 38.6 µM (≈ 16 µg/mL)
- MIC [5]: 38.6 µM (≈ 16 µg/mL)
- MBC [6]: 38.6 µM (≈ 16 µg/mL)
- MIC [7]: 38.6 µM (≈ 16 µg/mL)
- MIC [8]: 38.6 µM (≈ 16 µg/mL)
- MIC [9]: 4.82 µM (≈ 2 µg/mL)
- MIC [10]: 4.82 µM (≈ 2 µg/mL)
- MIC [11]: 4.82 µM (≈ 2 µg/mL)
- MIC (M. smegmatis): 77.1 µM (≈ 32 µg/mL)
- MIC [12]: 38.6 µM (≈ 16 µg/mL)
- MBC [13]: 4.82 µM (≈ 2 µg/mL)
- MIC (Bacillus cereus): 2.41 µM (≈ 1 µg/mL)
- MIC [14]: 2.41 µM (≈ 1 µg/mL)
- MBC [15]: 4.82 µM (≈ 2 µg/mL)
- MBC [16]: 38.6 µM (≈ 16 µg/mL)
- MBC [17]: 38.6 µM (≈ 16 µg/mL)
- log D6.5 ([18]; HPLC C18, MeOH 72%/acetate-buffered saline pH 6.5 28%): 0.973
- log D7.4 ([18]; HPLC C18, MeOH 72%/acetate-buffered saline pH 7.4 28%): 0.934
- log k ([18]; logarithm of capacity factor, HPLC C18, MeOH 72%/H2O 28%): 1.081
- MIC (Clostridium perfringens): 4.82 µM (≈ 2 µg/mL)
- MBC [19]: 9.64 µM (≈ 4 µg/mL)
